Assay results published in publication PMC11855827, “High-Throughput Screening of Five Compound Libraries for Anthelmintic Activity and Toxicity Leads to the Discovery of Two Flavonoid Compounds” (International Journal of Molecular Sciences, 2025).
Where two headings read alike, the source gives them in different places.

Tested on: C. elegans
[1] = Table S2, C. elegans SS assay, 110 μM, 0 h, averages of 4 data points
[2] = Table S2, C. elegans SS assay, 110 μM, 24 h, averages of 4 data points

Compound | Percentage of motility inhibition 0 h [1] [%] | Percentage of motility inhibition 24 h [2] [%] | Percentage of motility inhibition 0 h (110 µM) [%] | Percentage of motility inhibition 24 h (110 µM) [%]
Clc1ccc(CCC(Cn2ccnc2)Sc2c(Cl)cccc2Cl)cc1.O=[N+]([O-])O (stereo not shown) [Butoconazole (nitrate)] | 45 | 46 |  | 
CCCCC1OC(=O)c2ccccc21 (stereo not shown) [Butylphthalide] | 0 | 18 |  | 
Cc1ccc(Nc2cc(-c3cccc(N4C(=O)c5ccccc5C4=O)c3)ncn2)cc1NS(C)(=O)=O [CDK9‐IN‐1] | 54 | 3 |  | 
C[C@@]12CCc3occc3[C@H]1CC[C@@]13C[C@@H](CC[C@H]12)[C@@](O)(CO)C3 [Cafestol] | 0 | 28 |  | 
CC1(C)CC[C@]2(C(=O)O)CC[C@]3(C)C(=CC[C@@H]4[C@@]5(C)CC[C@H](O[C@@H]6O[C@H](C(=O)O)[C@@H](O)[C@H](O)[C@H]6O)C(C)(C)[C@@H]5CC[C@]43C)[C@@H]2C1 [Calenduloside E] | 0 | 0 |  | 
CN1CC[C@]23c4ccccc4N[C@H]1[C@]21CCN(C)[C@H]3Nc2ccccc21 [Calycanthine] | 0 | 0 |  | 
COc1ccc(-c2coc3cc(O[C@@H]4O[C@H](CO)[C@@H](O)[C@H](O)[C@H]4O)ccc3c2=O)cc1O [Calycosin‐7‐O‐β‐D‐glucoside] | 20 | 11 |  | 
c1ccc2c(-c3nccs3)c[nH]c2c1 [Camalexin] | 50 | 27 |  | 
CC1(C)S[C@@H]2[C@H](NC(=O)C(C(=O)[O-])c3ccccc3)C(=O)N2[C@H]1C(=O)[O-].[Na+].[Na+] (stereo partly shown) [Carbenicillin (disodium)] | 27 | 27 |  | 
C=C1[C@@H]2CC[C@H]3[C@]4(C)C[C@H](O[C@@H]5O[C@H](CO)[C@@H](OS(=O)(=O)O)[C@H](OS(=O)(=O)O)[C@H]5OC(=O)CC(C)C)CC(C(=O)[O-])(C(=O)[O-])[C@H]4CC[C@]3(C2)[C@H]1O.[K+].[K+] [Carboxyatractyloside (dipotassium)] | 15 | 18 |  | 
C=C1[C@@H]2CC[C@H]3[C@]4(C)C[C@H](O[C@H]5O[C@@H](CO)[C@H](OS(=O)(=O)[O-])[C@@H](OS(=O)(=O)[O-])[C@@H]5OC(=O)CC(C)C)C[C@@](C(=O)[O-])(C(=O)O)[C@H]4CC[C@]3(C2)[C@H]1O.[K+].[K+].[K+] [Carboxyatractyloside (tripotassium)] | 23 | 23 |  | 
COc1cc(O)cc(O)c1C(=O)/C=C/c1ccccc1 [Cardamonin] | 0 | 13 |  | 
C=C1CC[C@H]2O[C@]2(C)CC[C@@H]2[C@@H]1CC2(C)C [Caryophyllene oxide] | 13 | 13 |  | 
CC(=O)O.CC(=O)O.CC[C@H](C)C[C@H](C)CCCCCCCCC(=O)N[C@H]1C[C@@H](O)[C@@H](NCCN)NC(=O)[C@@H]2[C@@H](O)CCN2C(=O)[C@H]([C@H](O)CCN)NC(=O)[C@H]([C@H](O)[C@@H](O)c2ccc(O)cc2)NC(=O)[C@@H]2C[C@@H](O)CN2C(=O)[C@H]([C@@H](C)O)NC1=O [Caspofungin (Acetate)] | 27 | 4 |  | 
CCC1=C[C@@H]2CN3CCc4c([nH]c5ccccc45)[C@@](C(=O)OC)(C2)[C@@H]13.O=C(O)C(O)C(O)C(=O)O [Catharanthine (Tartrate)] |  |  | 0 | 12
CCC1=C[C@@H]2CN3CCc4c([nH]c5ccccc45)[C@@](C(=O)OC)(C2)[C@@H]13 [Catharanthine] | 0 | 0 |  | 
CC1(C)CC[C@]2(C(=O)O)CC[C@]3(C)C(=CC[C@@H]4[C@@]5(C)CC[C@H](O[C@@H]6OC[C@H](O)[C@H](O)[C@H]6O)[C@@](C)(CO)[C@@H]5CC[C@]43C)[C@@H]2C1 [Cauloside A] | 12 | 24 |  | 
CC1(C)CC[C@]2(C(=O)O)CC[C@]3(C)C(=CC[C@@H]4[C@@]5(C)CC[C@H](O[C@@H]6OC[C@H](O)[C@H](O)[C@H]6O[C@@H]6O[C@H](CO)[C@@H](O)[C@H](O)[C@H]6O)[C@@](C)(CO)[C@@H]5CC[C@]43C)[C@@H]2C1 [Cauloside C] | 0 | 10 |  | 
Cn1nnnc1SCC1=C(C(=O)[O-])N2C(=O)[C@@H](NC(=O)[C@H](OC=O)c3ccccc3)[C@H]2SC1.[Na+] [Cefamandole (nafate)] | 0 | 0 |  | 
Cc1nnc(SCC2=C(C(=O)[O-])N3C(=O)[C@@H](NC(=O)Cn4cnnn4)[C@H]3SC2)s1.[Na+] [Cefazolin (sodium)] | 14 | 0 |  | 
